{
  "source": "patent US9169492B2",
  "about": "“Compositions and methods for enhanced parvovirus transduction” (priority 2011, dated 2015)",
  "key": {"FVIII−/− mice [1]": {"test_system": "FVIII−/− mice", "assay": "Canine FVIII activity (Coatest) in plasma of hemophilia A mice after portal vein AAV.cFVIII with or without proteasome inhibitor", "type": "in vivo, mouse", "conditions": "for week at which FVIII activity became detectable: AAV2.cFVIII vector, drug rows = co-administered with this vector (FIG. 2C); for enhanced factor VIII expression on average: hemophilia mice", "description": "(§1) To avoid anticipated antibody-mediated immune responses to the canine FVIII transgene, all FVIII^−/− mice received cyclophosphamide (Sigma Aldrich, St Louis, Mo.) injected intraperitoneally in 3 doses of 100 μg each on days −3, 0, and +3, as previously described^5.\n(§2) Canine FVIII activity in mouse plasma was measured by the Coatest SP4 kit (Chromogenix, DiPharma, West Chester, Ohio) following the manufacture's instruction with modification. Normal canine plasma (regarded as 100 percent activity=1 IU/ml) was serially diluted into FVIII^−/− pooled mouse plasma to generate the standard curve. Neutralizing antibodies to canine FVIII in mouse were measured by the Bethesda assay using a START 4 Coagulation Analyzer as described^42 (Diagnostica Stago, Asnières, France). Human factor IX was measured based on one-stage factor IX activity assay (FIX-specific aPTT) as previously described, using a START 4 Coagulation Analyzer (Diagnostica Stago, Asnières, France)^43.\nStudies were carried out to analyze the effect of combination therapy using large transgene cassette FVIII in hemophilic A mice using the same genetic background (C57B1/6). […] Virus was characterized for total particle number by qPCR, virion integrity by electron microscopy, capsid ratio by silver stain, and DNA genome size by alkaline gel electrophoresis."}, "hemophilia A dogs": {"test_system": "hemophilia A dogs", "assay": "Tolerability of vector and bortezomib in hemophilia A dogs", "type": "in vivo, dog", "conditions": "no liver transaminase elevations, neurologic symptoms or changes in hematologic parameters", "description": "Using identical AAV cFVIII vector cassettes, studies were carried out to determine whether proteasome inhibitor augmentation of the expression of large transgenes translates to the canine hemophilia A model. […] Four hemophilia A pups received the same AAV therapy and received a single I.V. dose of the proteasome inhibitor bortezomib at FDA-approved dose of (1.3 mg/m^2). […] Specifically, no liver transaminase elevations, neurologic symptoms or changes in hematologic parameters were observed."}, "FIX−/− mice": {"test_system": "FIX−/− mice", "assay": "Human factor IX activity (one-stage FIX-specific aPTT) in hemophilia B mice after portal vein AAV.hFIX with or without bortezomib", "type": "in vivo, mouse", "conditions": "20 weeks", "description": "as §1, §2\nStudies were conducted to test the effect of combination therapy using bortezomib on in vivo correction of hemophilic animals. First, a vector carrying a genome approximately the same size as wild type AAV was used for the correction of hemophilia B in a mouse model. […]"}, "293T cells": {"test_system": "293T cells", "assay": "FACScan analysis of GFP expression in AAV2.GFP-transduced cells with or without bortezomib", "type": "cell-based", "conditions": "AAV2.GFP transduction and bortezomib co-administration", "description": "293T cells were grown in Dulbecco's modified Eagle's medium (Mediatech, Herndon, Va.) supplemented with 9% fetal bovine serum and 1% penicillin/streptomycin solution and transduced at a multiplicity of infection of 1. At 3-5 days after transduction, cells were harvested, fixed in phosphate-buffered saline (PBS) containing 2% formaldehyde/0.2% glutaraldehyde, and analyzed by FACScan as previously described^40."}, "[2]": {"assay": "Bortezomib dose tolerability in mice without AAV vector", "type": "in vivo", "description": "The primary objective of these studies was to validate in small and large animal “combination therapy” using FDA approved drug bortezomib and AAV transgene vectors. The present studies describe the use of the proteasome inhibitor, bortezomib (also known as Velcade®), as this is the only proteasome inhibitor currently approved for clinical use by the FDA. Bortezomib, like most chemotherapy is dosed based on body surface area. For all large animal studies, the FDA-approved dose of (1.3 mg/m^2) was used. However preclinical toxicity data has established a safe bortezomib dose for mice of 0.5 mg per kilogram of body weight^23. […] Even though the dosing in mice was calculated on a per kilogram body weight basis vs. clinically recommended body surface area, the total dose used in mice is roughly equivalent to total dose used in dog studies described herein."}, "Factor VIII−/− mice": {"test_system": "Factor VIII−/− mice", "assay": "Expression from codon-optimized AAV8 factor VIII vector with or without bortezomib", "type": "in vivo, mouse", "conditions": "ssAAV8 3×10^10 vg/animal portal vein + bortezomib 0.5 mg/kg; persisted 12 weeks", "description": "Factor VIII^−/− mice received 3×10^10 vg/animal single strand AAV serotype 8 vector encoding an oversized factor VIII transgene (n=5 mice per treatment group). The canine factor VIII cDNA sequence incorporated in the vector was engineered for optimal mammalian codon usage and GC nucleotide content. Mice received vector infusion to portal vein either alone or in combination with 0.5 mg/kg of proteasome inhibitor bortezomib (PI). While it has been established that codon-optimization increases expression from clotting factor VIII and IX vectors, it was not established whether PI could further augment the more efficient codon-optimized vectors."}, "FVIII−/− mice [3]": {"test_system": "FVIII−/− mice", "assay": "Liver ALT, AST and complete blood counts in vector-treated hemophilia A mice", "type": "in vivo, mouse", "conditions": "mice receiving vector alone or in combination with bortezomib", "description": "In these mice, canine factor VIII peaked at 8 weeks, then began to decrease. […] Bortezomib co-administration improved initial and sustained canine factor VIII expression. […] To facilitate comparison of the proteasome inhibitor effect upon vectors generated from wtAAV-sized factor IX transgene and oversized factor VIII transgene, the same time points are graphed in FIGS. 2A and 2B (factor IX) and FIGS. 2C and 2D (factor VIII). Bortezomib treatment was associated with a proportionately greater augmentation of the oversize transgene expression than that of the smaller transgene."}, "[4]": {"conditions": "preclinical toxicity data (ref 23); cited from earlier work"}, "[5]": {"conditions": "bortezomib co-administered with AAV2 cFVIII vector"}},
  "note": "Peptide text beside a SMILES is read from it. * marks the point of attachment. Cbz = O=C(OCc1ccccc1)*",
  "data": [
    {"smiles": "CC(C)C[C@@H](C=O)NC(=O)[C@H](CC(C)C)NC(=O)[C@H](CC(C)C)NC(=O)OCc1ccccc1", "note": "[MG-132] (Cbz-Leu-Leu-Leu-aldehyde)", "values": [
      {"measurement": "week at which FVIII activity became detectable", "setting": "FVIII−/− mice [1]", "value": 2, "unit": "week"},
      {"measurement": "FVIII expression increased on average vs vector alone", "setting": "FVIII−/− mice [1]; mouse, in vivo", "value": "> 150", "unit": "%"},
      {"measurement": "effect on factor VIII expression", "setting": "FVIII−/− mice [1]; mouse, in vivo", "value": "slightly increased factor VIII expression was observed in the first month"}
    ]},
    {"smiles": "CC(C)C[C@H](NC(=O)[C@H](Cc1ccccc1)NC(=O)c1cnccn1)B(O)O", "note": "[bortezomib]", "values": [
      {"measurement": "tolerability", "setting": "hemophilia A dogs", "value": "well tolerated"},
      {"measurement": "higher factor IX activity vs vector alone", "setting": "FIX−/− mice; bortezomib single dose co-administered with AAV8 factor IX vector", "value": "~24", "unit": "%"},
      {"measurement": "increase in factor IX expressed vs vector alone", "setting": "FIX−/− mice; bortezomib single dose with ssAAV2.FIX", "value": 83, "unit": "%"},
      {"measurement": "percentage of cells expressing transgene", "setting": "293T cells", "value": "increase"},
      {"measurement": "tolerability", "setting": "[2]; 0.5 mg/kg, without AAV vector", "value": "tolerated the proteasome inhibitors without apparent side effect or change in hematologic parameters"},
      {"measurement": "tolerability", "setting": "[2]; higher dose 1.0 mg/kg", "value": "occasionally mice receiving this dose displayed decreased activity and feeding"},
      {"measurement": "expression of codon-optimized factor VIII", "setting": "Factor VIII−/− mice", "value": "augmented expression"},
      {"measurement": "liver ALT, AST and complete blood counts", "setting": "FVIII−/− mice [3]", "value": "did not show any evidence of hepatic or hematologic toxicity"},
      {"measurement": "safe bortezomib dose for mice", "setting": "[4]", "value": "0.5 mg per kilogram of body weight"},
      {"measurement": "week at which FVIII activity became detectable", "setting": "FVIII−/− mice [1]", "value": 1, "unit": "week"},
      {"measurement": "factor VIII activity maintained for a year", "setting": "FVIII−/− mice [1]; [5]", "value": "more than 3%"},
      {"measurement": "peak factor VIII activity at week 8", "setting": "FVIII−/− mice [1]; [5]", "value": "0.11±0.06", "unit": "IU/ml"},
      {"measurement": "persistence of enhanced expression without further proteasome inhibitor treatment", "setting": "FVIII−/− mice [1]; hemophilic mice", "value": "> 1", "unit": "year"},
      {"measurement": "FVIII expression increased on average vs vector alone", "setting": "FVIII−/− mice [1]; mouse, in vivo", "value": "> 550", "unit": "%"},
      {"measurement": "factor VIII expression higher on average vs AAV8.cFVIII vector alone", "setting": "FVIII−/− mice [1]; mouse, in vivo", "value": 259, "unit": "%"},
      {"measurement": "enhanced factor VIII expression on average", "setting": "FVIII−/− mice [1]; single dose of bortezomib given with AAV2 factor VIII vector", "value": "~600", "unit": "%"},
      {"measurement": "enhanced factor VIII expression on average", "setting": "FVIII−/− mice [1]; single dose of bortezomib given with AAV8 factor VIII vector", "value": "~300", "unit": "%"}
    ]}
  ]
}
